Several values for one entry are separate records, joined by “and”; a condition that tells them apart may be missing. Equal entries are not always repeated.
Assays:
Format in all cases: in vivo
[1] = tested on: Plutella xylostella; assay: Leaf dip method (cabbage leaves) against Plutella xylostella (Example C); conditions: single compound, 72 h
Protocol: The leaf dip method was used, wherein the required quantity of the compound or respective compound combinations were weighed and dissolved in a test solution prepared in tubes. The tubes were put on a vortex at 2000 rpm for 90 min for proper mixing and then the test solutions were diluted with 0.01% Triton-X to the desired test concentration. Cabbage leaves were dipped into the solution for 10 seconds, shade dried for 20 min and then transferred to single cells of bioassay trays. A single second instar larva was released into each cell and the tray was covered with a lid. The bio-assay trays were kept under laboratory conditions at a temperature of 25° C. and relative humidity of 70%. Observations on dead, moribund and live larvae were recorded 72 h after the release. Percent mortality was calculated by combining dead and moribund larvae and comparing the result with the one of the untreated control. The results are shown for compound of formula (I-III) in Table C.

[2] = tested on: Spodoptera litura; assay: Diet incorporation method against Spodoptera litura (Example B); conditions: single compound, 1 ppm, 96 h
Protocol: The diet incorporation method was used, in which semi-synthetic diet was incorporated into the test solution consisting either of the single compound or respective compound combinations, when the temperature was approximately 50° C. in the bioassay containers, then stirred thoroughly for proper mixing and allowed to cool for 30 min. The solidified diet was cut into equal pieces, and then each piece was transferred into one cell of the bio-assay trays. A single starved third instar larva was released into each of these cells of the bio-assay trays and the tray was covered with a lid. The bio-assay trays were kept under laboratory conditions at a temperature of 25° C. and relative humidity of 70%. Observations on dead, moribund and live larvae were recorded 96 h after the release. Percent mortality was calculated by combining dead and moribund larvae and comparing the result with the one of the untreated control. The results are shown for the compound of formula (I-III) in Table B.

[3] = tested on: Plutella xylostella; assay: Leaf dip method (cabbage leaves) with Bacillus thuringiensis against Plutella xylostella (Example F); conditions: single, 0.1 ppm, 72 h
Protocol: The leaf dip method was used, wherein the required quantity of the compounds were weighed and dissolved in a test solution prepared in tubes. The tubes were put on a vortex at 2000 rpm for 90 min for proper mixing and then, for the single compounds, diluted with a 0.01% Triton-X solution, for the combinations, diluted with a 0.01% Triton-X solution containing formulated Bt, to get the desired test concentration. Cabbage leaves were dipped in the solution for 10 seconds, shade dried for 20 min and then transferred to single cells of bioassay trays. A single second instar larva was released into each cell and the tray was covered with a lid. The bio-assay trays were kept under laboratory conditions at a temperature of 25° C. and relative humidity of 70%. Observations on dead, moribund and live larvae were recorded 72 h after the release. Percent mortality was calculated by combining dead and moribund larvae and comparing the results to the one of the untreated control. The results have been described for compound of formula (I-III) in Table F.

[4] = tested on: Alternaria solani; assay: Preventive glasshouse test against Alternaria solani in tomato (Example G); conditions: single compound
Protocol: The single compounds or respective compound combinations were dissolved in 2% dimethyl sulfoxide/acetone and then mixed with water containing emulsifier to a calibrated spray volume of 50 mL. The test solutions were poured into spray bottles for further applications.
To test the preventive activity, healthy young tomato plants, raised in the greenhouse, were sprayed with the active compound preparation at the stated application rates inside the spray cabinets using hollow cone nozzles. One day after treatment, the plants were inoculated with a spore suspension containing 0.24×10^6 Alternaria solani inoculum and 2% Malt. The inoculated plants were then kept in a greenhouse chamber at a temperature of 22-24° C. and 90-95% relative humidity for disease expression.
A visual assessment of the performance of the single compounds or compound combinations was carried out by rating the disease severity (0-100% scale) on treated plants 3, 7, 10 and 15 days after application. Efficacy (% control) of the single compounds and mixtures was calculated by comparing the disease rating in the treatment with the one of the untreated control. The compounds were also assessed for their plant compatibility by recording symptoms like necrosis, chlorosis and stunting. The results have been described for the compound of formula (I-III) in Table G.

6-(3-bromo-1-(3-chloropyridin-2-yl)-1H-pyrazole-5-carboxamido)-N-isopropyl-5-methylpyrazolo[1,5-a]pyridine-7-carboxamide [Compound (I-III)]
Observed Efficacy (%) ([1]; 0.05 ppm): 12.5% | Observed Efficacy (%) ([1]; 0.1 ppm): 12.5% | Observed Efficacy (%) ([1]; 0.5 ppm): 25% | Observed Efficacy (%) [2]: 12.5% and 25% | Observed Efficacy (%) [3]: 12.5% | Observed Efficacy (%) ([4]; 100 ppm): 30% | Observed Efficacy (%) ([4]; 500 ppm): 32%
